Test results published in the supplement of paper PMC10307832.

Legend:
Experiment in all cases: relative viability (nuclei count vs DMSO), 5 days (fraction); higher = more cells survive
[1] = compound: CC1=CC(=CC=C1)NC2=NC(=CS2)C3=CC=NC=C3 + CC(=O)c1c(C)c2cnc(Nc3ccc(N4CCNCC4)cn3)nc2n(C2CCCC2)c1=O [Palbociclib] (partner 0.5 µM)
How it was run: (§1)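 Lung cancer cell lines were pin-tool dosed in 1536-well plates on the day after seeding, with either a lone drug or a fixed anchor-drug dose plus five library-drug doses (not always all listed) in √10 steps. Nuclei were counted on 4× images after 5 days. Relative viability is the ratio of treated-well to vehicle-well nuclei counts, with each value a median of duplicate plates.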

Masitinib + Decitabine = compound: Cc1ccc(NC(=O)c2ccc(CN3CCN(C)CC3)cc2)cc1Nc1nc(-c2cccnc2)cs1 [Masitinib] + Nc1ncn([C@H]2C[C@H](O)[C@@H](CO)O2)c(=O)n1 [Decitabine] (partner 2 µM)
How it was run: as §1

[2] = compound: CC1=CC(=CC=C1)NC2=NC(=CS2)C3=CC=NC=C3 + Nc1nc2[nH]cc(CCc3ccc(C(=O)N[C@@H](CCC(=O)O)C(=O)O)cc3)c2c(=O)[nH]1 [Pemetrexed] (partner 0.2 µM)
How it was run: as §1

Masitinib + Alpelisib = compound: Cc1ccc(NC(=O)c2ccc(CN3CCN(C)CC3)cc2)cc1Nc1nc(-c2cccnc2)cs1 [Masitinib] + Cc1nc(NC(=O)N2CCC[C@H]2C(N)=O)sc1-c1ccnc(C(C)(C)C(F)(F)F)c1 [Alpelisib] (partner 2 µM)
How it was run: as §1

Row | Cell Line | relative viability ([1]; first compound 0.08 µM) | relative viability ([1]; first compound 0.8 µM) | relative viability ([1]; first compound 2.53 µM) | relative viability ([1]; first compound 8 µM) | relative viability (Masitinib + Decitabine; first compound 0.01 µM) | relative viability (Masitinib + Decitabine; first compound 0.03162 µM) | relative viability (Masitinib + Decitabine; first compound 0.1 µM) | relative viability (Masitinib + Decitabine; first compound 0.3162 µM) | relative viability (Masitinib + Decitabine; first compound 1 µM) | relative viability ([2]; first compound 0.08 µM) | relative viability ([2]; first compound 0.253 µM) | relative viability ([2]; first compound 0.8 µM) | relative viability ([2]; first compound 2.53 µM) | relative viability ([2]; first compound 8 µM) | relative viability (Masitinib + Alpelisib; first compound 0.01 µM) | relative viability (Masitinib + Alpelisib; first compound 0.03162 µM) | relative viability (Masitinib + Alpelisib; first compound 0.1 µM) | relative viability (Masitinib + Alpelisib; first compound 0.3162 µM) | relative viability (Masitinib + Alpelisib; first compound 1 µM) | relative viability ([1]; first compound 0.253 µM)
1 | NCI-H1792 | 0.596 | 0.614 | 0.624 | 0.672 | 0.621 | 0.443 | 0.51 | 0.438 | 0.472 | 0.453 | 0.682 | 0.651 | 0.67 | 0.784 | 0.69 | 0.203 | 0.61 | 0.65 | 0.698 | –
2 | HCC-78 | 0.367 | 0.4 | 0.447 | 0.511 | 0.634 | 0.637 | 0.605 | 0.693 | 0.615 | 0.907 | 0.963 | 0.827 | 0.917 | 0.9 | 0.342 | 0.188 | 0.438 | 0.306 | 0.332 | 0.438
3 | IA-LM | – | – | – | – | – | – | – | – | – | – | – | – | – | – | 0.823 | 0.758 | 1.07 | 0.762 | 0.787 | –
4 | NCI-H441 | 0.214 | 0.261 | 0.224 | 0.184 | 0.214 | 0.23 | 0.262 | 0.233 | 0.244 | 0.265 | 0.265 | 0.246 | 0.255 | 0.255 | 0.675 | 0.822 | 0.873 | 0.703 | 0.653 | 0.205
5 | NCI-H322M | 0.463 | 0.565 | 0.574 | 0.563 | 0.626 | 0.733 | 0.612 | 0.719 | 0.706 | 0.564 | 0.576 | 0.608 | 0.615 | 0.624 | 0.782 | 0.778 | 0.932 | 0.763 | 0.793 | 0.47
6 | LU99A | 0.387 | 0.42 | 0.39 | 0.468 | 0.921 | 0.916 | 0.901 | 0.997 | 0.986 | 0.141 | 0.199 | 0.171 | 0.178 | 0.182 | 0.554 | 0.544 | 0.549 | 0.547 | 0.449 | 0.384
7 | COR-L23 | 0.256 | 0.232 | 0.279 | 0.303 | 0.388 | 0.412 | 0.463 | 0.329 | 0.359 | 0.184 | 0.194 | 0.201 | 0.189 | 0.184 | 0.862 | 0.81 | 0.861 | 0.848 | 0.852 | 0.251
8 | NCI-H2126 | 0.336 | 0.346 | 0.321 | 0.339 | 0.58 | 0.499 | 0.586 | 0.505 | 0.567 | 0.596 | 0.599 | 0.657 | 0.599 | 0.719 | 0.802 | 0.766 | 0.832 | 0.661 | 0.712 | 0.38
9 | NCI-H1299 | – | – | – | – | – | – | – | – | – | – | – | – | – | – | 1.1 | 1.1 | 1.27 | 1.11 | 1.05 | –
10 | NCI-H1703 | – | – | – | – | – | – | – | – | – | – | – | – | – | – | 0.226 | 0.255 | 0.228 | 0.171 | 0.197 | –
11 | NCI-H2228 | 0.655 | 0.74 | 0.749 | 0.615 | – | – | – | – | – | 0.38 | 0.346 | 0.323 | 0.343 | 0.208 | 0.897 | 0.708 | 0.835 | 0.685 | 0.844 | 0.797
12 | NCI-H596 | – | – | – | – | 0.994 | 0.959 | 1.11 | 1.14 | 0.934 | 0.494 | 0.472 | 0.446 | 0.454 | 0.463 | 0.341 | 0.462 | 0.625 | 0.397 | 0.435 | –
13 | ChaGo-K-1 | 0.9 | 0.946 | 0.943 | 0.859 | 0.553 | 0.526 | 0.536 | 0.526 | 0.534 | 0.259 | 0.272 | 0.249 | 0.266 | 0.252 | – | – | – | – | – | 0.961
14 | NCI-H522 | 1.19 | 0.92 | 0.954 | 0.947 | 0.707 | 0.897 | 0.8 | 0.696 | 0.646 | 0.966 | 1.12 | 1.17 | 0.995 | 1.19 | – | – | – | – | – | 0.797
15 | NCI-H1648 | 0.242 | 0.281 | 0.295 | 0.302 | 0.614 | 0.451 | 0.568 | – | 0.453 | 0.639 | 0.626 | 0.749 | 0.673 | 0.633 | – | – | – | – | – | 0.263
16 | NCI-H1563 | – | – | – | – | – | – | – | – | – | 0.744 | 0.739 | 0.717 | 0.742 | 0.881 | 1.02 | 0.964 | 0.839 | 1.13 | 0.931 | –
17 | NCI-H2342 | 0.455 | 0.557 | 0.503 | 0.497 | 0.724 | 0.648 | 0.683 | 0.79 | 0.833 | 0.615 | 0.796 | 0.765 | 0.789 | 0.759 | – | – | – | – | – | 0.491
18 | SW 900 | 0.508 | 0.49 | 0.477 | 0.46 | 0.349 | 0.438 | 0.452 | 0.519 | 0.442 | 0.507 | 0.4 | 0.473 | 0.42 | 0.366 | – | – | – | – | – | 0.464
19 | A549 | – | – | – | – | 0.249 | 0.251 | 0.219 | 0.433 | 0.278 | – | – | – | – | – | 0.773 | 0.712 | 1.01 | 0.938 | 0.683 | –
20 | NCI-H727 | 0.725 | 0.541 | – | 0.695 | 0.808 | 1.03 | 0.763 | 0.729 | 0.781 | – | – | – | – | – | 0.652 | 0.657 | 0.517 | 0.603 | 0.74 | –
21 | NCI-H1650 | 0.278 | 0.449 | 0.235 | 0.239 | 0.438 | 0.391 | 0.411 | 0.493 | 0.345 | 0.341 | 0.358 | 0.399 | 0.346 | 0.323 | – | – | – | – | – | 0.281
22 | ABC-1 | 0.627 | 0.944 | 0.795 | 0.473 | 1.02 | 1.14 | 1.24 | 1.06 | 0.865 | – | – | – | – | – | 1.26 | 1.04 | 1.01 | 0.813 | 1.01 | –
